# Assay results taken from article PMC6234764, “First Insights Into Within Host Translocation of the Bacillus cereus Toxin Cereulide Using a Porcine Model” (Frontiers in Microbiology, 2018).
# Where two headings read alike, the source gives them in different places.
# Assays:
# [1] = plasma of rabbits, direct intravenous injection; ref Cui et al., 2016; cited from earlier work
# Large White piglets = assay: Clinical signs after oral administration of cereulide; type: in vivo, pig
# Description: In each experiment five Large White piglets, weighing 10–15 kg, were used. All piglets were derived from one single farm in Austria. The animals were placed in metabolic cages 3 days before start of the experiment for acclimatization. Water ad libitum and feed (Ferkelkorn, Garant Tiernahrung, Pöchlarn, Austria) were available before and during the whole experiment.
# (§1) A total of four experiments, each including four treated animals and one control pig, was performed to investigate the action of cereulide on piglets after oral intake of cereulide. Pigs were either challenged orally with a single dose (acute trials) or with daily over a period of 7 days (chronic trial) (see Table 1). One hour before cereulide toxin administration blood samples were taken by puncturing the anterior Vena cava and piglets were weighed for calculation of the cereulide concentration (t = 0 h). In the intoxication experiment with 150 μg kg^-1 blood samples were taken 68 h before the experiment to reduce the distress for the animals at the start day of the experiments. Blood-chemical, immunological, and histological analyses of selected organs as well as quantification of cereulide in organs, tissues, urine and feces were carried out as detailed below.
# (§2) On body weight calculated amounts of cereulide, dissolved in ethanol, were mixed with milk (UHT milk; 3.5% fat), and fed to four piglets. Control piglets were fed with milk supplemented with similar ethanol concentrations as the experimental piglets. The experiment started after the uptake of the whole milk cereulide mixture. The milk was checked for bacterial contamination prior to the experiment.
# (§3) After oral administration of cereulide, piglets were monitored for unusual behavior and examined physically with special respect on rectal body temperature as well as pulse and respiration rate, every 2–3 h. Blood samples were taken from the Vena cava cranialis. Urine and feces were collected during the whole experiment and stored at -80°C. After the experiment pigs were anaesthetized by intramuscular injection of a bolus of ketamine (10 mg kg^-1) and azaperone (1.3 mg kg^-1). When sedation was deep enough cerebrospinal fluid (liquor) was taken by lumbar puncture. Finally, pigs were euthanized by intracardial injection of T61®. Animals were then necropsied and parts of the following organs, tissues or body fluids were taken for SIDA-MS analysis: liver, lung, heart, kidney, brain, spleen, small and large intestine, lymph nodes, gastric as well as intestinal contents, skeletal muscle, and abdominal and subcutaneous fat. Samples of liver, lung, heart, kidney, brain, spleen, small, and large intestine were collected for histological analysis.
# [2] = Cereulide in organs and tissues, SIDA-MS; type: in vivo, pig; conditions: for tissue level at time at 48 h / tissue level at time at 168 h: pig; for tissue level at time at 168 h: 10 ug/kg
# Description: as §1, §2, §3
# Collected blood samples, urine, feces, tissue and organs were freeze dried and stored at -80°C until analysis. Before extraction, liquid nitrogen was added to frozen samples and they were crushed to a powder using a mortar. Ten microgram ^13C6-cereulide (for organs and feces) or 5 μg ^13C6-cereulide (for urine and blood) was added and samples were incubated on a rocking table for 2 h. Samples were solved in ethanol (volume depending on weight 10–40 mL), incubated 14 h, and the supernatants were collected by centrifugation (RT, 8500 g, 10 min). For pre-purification the ethanolic extract was 1:5 diluted with water and applied onto the top of a methanol activated C18-SPE cartridge (6 mL; 1 g; Strata C18-E; Phenomenex, Aschaffenburg, Germany). The cartridge was washed with 6 mL water followed by methanol/water (4 mL; 70/30, v/v) and target compounds were eluted with ethanol (2.5 mL). Finally, samples were membrane filtrated (0.2 μm; PTFE membrane; Phenomenex, Aschaffenburg, Germany) and analyzed by means of LC-MS/MS as described previously ([Bauer et al., 2010]). In brief, LC-MS/MS analysis was performed using an Agilent 1200 HPLC-system connected to the API 4000QTrap LC-MS/MS (Applied Biosystems, Darmstadt, Germany) running in the positive electrospray ionization (ESI^+, +5500 V) mode. Zero grade air served as nebulizer gas (45 psi) and turbo gas (425°C) for solvent drying (55 psi), nitrogen was used as curtain (20 psi) and collision gas (8.7 × 10^-7 psi), respectively. Both quadrapoles were set at unit resolution. […]
# [3] = oral doses 10 to 150 μg kg^-1, summary in discussion
# [4] = daily oral dose 10 μg kg^-1 for 7 days, SIDA-MS
# [5] = daily oral dose 10 μg kg^-1 over 7 days
# [6] = single oral dose 30 μg kg^-1, necropsy after 48 h, SIDA-MS
# [7] = single oral dose 150 μg kg^-1, necropsy after 48 h, SIDA-MS
structure (smiles),measurement,setting,value
CC(C)C[C@H]1OC(=O)[C@H](C(C)C)NC(=O)[C@H](C(C)C)OC(=O)[C@@H](C)NC(=O)[C@@H](CC(C)C)OC(=O)[C@H](C(C)C)NC(=O)[C@H](C(C)C)OC(=O)[C@@H](C)NC(=O)[C@@H](CC(C)C)OC(=O)[C@H](C(C)C)NC(=O)[C@H](C(C)C)OC(=O)[C@@H](C)NC1=O [cereulide],Elimination half-life,[1],10.8 ± 9.1 h
same,"Pulse and respiration rates, inner body temperature","Large White piglets; all animals, except during periods of seizures and convulsions",normal pulse and respiration rates as well as inner body temperature
same,Onset of seizures,"Large White piglets; daily oral dose 10 μg kg^-1 for 7 days, all four pigs to varying extents",2 to 4 h
same,Onset of transient depressiveness,"Large White piglets; daily oral dose 10 μg kg^-1 for 7 days, all piglets",2 to 6 h
same,Emesis in the pigs,Large White piglets; oral doses 10 to 150 μg kg^-1,only rarely observed
same,Onset of observed symptoms in the piglets,Large White piglets; [3],1.5 to 3 h
same,Time after which symptoms ceased,Large White piglets; [3],7 to 9 h
same,Duration of transient depressive behavior,"Large White piglets; single oral dose 10 μg kg^-1, all treated piglets",4.5 to 6 h
same,Time of vomiting after toxin intake,"Large White piglets; single oral dose 10 μg kg^-1, one animal",11 h
same,Time after which all symptoms disappeared,Large White piglets; single oral dose 30 μg kg^-1,7 to 9 h
same,Onset of shivering,"Large White piglets; single oral dose 30 μg kg^-1, 2/4 piglets, seizures an additional hour later",1 h
same,Onset of seizures after cereulide intake,"Large White piglets; single oral dose 30 μg kg^-1, remaining two piglets",4 to 6 h
same,Onset of lethargic behavior,"Large White piglets; single oral dose 150 μg kg^-1, all treated piglets",1.5 to 2 h
same,Time to gradual recovery,"Large White piglets; single oral dose 150 μg kg^-1, three of the four piglets",6 to 7 h
same,"Average concentration in content of large intestine, acute 150 μg kg^-1 versus chronic 10 μg kg^-1 daily",[2]; acute high dose over chronic trial,about 15 fold
same,"Amounts of cereulide in muscle, chronic trial versus acute high dose",[2]; chronic 10 μg kg^-1 daily exceeds acute 150 μg kg^-1,threefold
same,"Cereulide concentration in content of large intestine, range",[2]; [4],2.04 to 6.78 ng/g
same,"Cereulide concentration in kidney, range",[2]; [4],0.14 to 0.37 ng/g
same,"Cereulide concentration in large intestine, range",[2]; [4],1.16 to 5.05 ng/g
same,"Cereulide concentration in liver, range",[2]; [4],0.06 to 0.24 ng/g
same,"Cereulide concentration in lymph nodes, range",[2]; [4],0.01 to 0.14 ng/g
same,"Cereulide concentration in muscle, range",[2]; [4],0 to 2.23 ng/g
same,"Cereulide concentration in spleen, range",[2]; [4],0.10 to 0.21 ng/g
same,"Cereulide concentration in subcutaneous fat, range",[2]; [4],0 to 0.08 ng/g
same,"Cereulide in large intestine and large intestinal contents, maximum",[2]; [5],up to 6.8 ng g^-1
same,Detectability of cereulide in the small intestine,[2]; [5],not detectable
same,Passage of the blood-brain-barrier (BBB),[2]; detection of cereulide in brain samples after oral challenge,can cross the BBB
same,tissue level at time at 48 h,"[2]; abdominal fat, 150 ug/kg, single oral dose 150 μg kg^-1, necropsy after 48 h, SIDA-MS, read-out: Cereulide concentration in abdominal fat, average",7.88 ± 4.17 ng/g
same,tissue level at time at 48 h,"[2]; brain, 150 ug/kg, single oral dose 150 μg kg^-1, necropsy after 48 h, SIDA-MS, read-out: Cereulide concentration in brain, average",0.73 ± 0.49 ng/g
same,tissue level at time at 168 h,"[2]; content of large intestine, daily oral dose 10 μg kg^-1 for 7 days, SIDA-MS, read-out: Cereulide concentration in content of large intestine, average",4.41 ± 2.37 ng/g
same,tissue level at time at 48 h,"[2]; content of large intestine, 30 ug/kg, single oral dose 30 μg kg^-1, necropsy after 48 h, SIDA-MS, read-out: Cereulide concentration in content of large intestine, average",0.07 ± 0.03 ng/g
same,tissue level at time at 48 h,"[2]; content of large intestine, 150 ug/kg, single oral dose 150 μg kg^-1, necropsy after 48 h, SIDA-MS, read-out: Cereulide concentration in content of large intestine, average",67.9 ± 50.8 ng/g
same,tissue level at time at 48 h,"[2]; content of small intestine, 150 ug/kg, single oral dose 150 μg kg^-1, necropsy after 48 h, SIDA-MS, read-out: Cereulide concentration in content of small intestine, average",0.68 ± 0.53 ng/g
same,tissue level at time at 168 h,"[2]; kidney, daily oral dose 10 μg kg^-1 for 7 days, SIDA-MS, read-out: Cereulide concentration in kidney, average",0.25 ± 0.12 ng/g
same,tissue level at time at 48 h,"[2]; kidney, 150 ug/kg, single oral dose 150 μg kg^-1, necropsy after 48 h, SIDA-MS, read-out: Cereulide concentration in kidney, average",0.21 ± 0.21 ng/g
same,tissue level at time at 168 h,"[2]; large intestine, daily oral dose 10 μg kg^-1 for 7 days, SIDA-MS, read-out: Cereulide concentration in large intestine, average",3.11 ± 1.95 ng/g
same,tissue level at time at 48 h,"[2]; large intestine, 30 ug/kg, single oral dose 30 μg kg^-1, necropsy after 48 h, SIDA-MS, read-out: Cereulide concentration in large intestine, average",0.07 ± 0.06 ng/g
same,tissue level at time at 48 h,"[2]; large intestine, 150 ug/kg, single oral dose 150 μg kg^-1, necropsy after 48 h, SIDA-MS, read-out: Cereulide concentration in large intestine, average",30.5 ± 14.3 ng/g
same,tissue level at time at 168 h,"[2]; liver, daily oral dose 10 μg kg^-1 for 7 days, SIDA-MS, read-out: Cereulide concentration in liver, average",0.14 ± 0.08 ng/g
same,tissue level at time at 48 h,"[2]; liver, 150 ug/kg, single oral dose 150 μg kg^-1, necropsy after 48 h, SIDA-MS, read-out: Cereulide concentration in liver, average",0.37 ± 0.07 ng/g
same,tissue level at time at 168 h,"[2]; lymph nodes, daily oral dose 10 μg kg^-1 for 7 days, SIDA-MS, read-out: Cereulide concentration in lymph nodes, average",0.07 ± 0.07 ng/g
same,tissue level at time at 48 h,"[2]; lymph nodes, 150 ug/kg, single oral dose 150 μg kg^-1, necropsy after 48 h, SIDA-MS, read-out: Cereulide concentration in lymph nodes, average",2.82 ± 1.71 ng/g
same,tissue level at time at 168 h,"[2]; muscle, daily oral dose 10 μg kg^-1 for 7 days, SIDA-MS, read-out: Cereulide concentration in muscle, average",1.12 ± 1.12 ng/g
same,tissue level at time at 48 h,"[2]; muscle, 150 ug/kg, single oral dose 150 μg kg^-1, necropsy after 48 h, SIDA-MS, read-out: Cereulide concentration in muscle, average",0.39 ± 0.32 ng/g
same,tissue level at time at 48 h,"[2]; small intestine, 150 ug/kg, single oral dose 150 μg kg^-1, necropsy after 48 h, SIDA-MS, read-out: Cereulide concentration in small intestine, average",1.34 ± 0.88 ng/g
same,tissue level at time at 168 h,"[2]; spleen, daily oral dose 10 μg kg^-1 for 7 days, SIDA-MS, read-out: Cereulide concentration in spleen, average",0.15 ± 0.06 ng/g
same,tissue level at time at 48 h,"[2]; spleen, 150 ug/kg, single oral dose 150 μg kg^-1, necropsy after 48 h, SIDA-MS, read-out: Cereulide concentration in spleen, average",2.26 ± 1.75 ng/g
same,tissue level at time at 48 h,"[2]; stomach, 150 ug/kg, single oral dose 150 μg kg^-1, necropsy after 48 h, SIDA-MS, read-out: Cereulide concentration in stomach, average",2 ± 3.2 ng/g
same,tissue level at time at 168 h,"[2]; subcutaneous fat, daily oral dose 10 μg kg^-1 for 7 days, SIDA-MS, read-out: Cereulide concentration in subcutaneous fat, average",0.04 ± 0.04 ng/g
same,tissue level at time at 48 h,"[2]; subcutaneous fat, 150 ug/kg, single oral dose 150 μg kg^-1, necropsy after 48 h, SIDA-MS, read-out: Cereulide concentration in subcutaneous fat, average",0.74 ± 0.51 ng/g
same,"Cereulide concentration in content of large intestine, range",[2]; [6],0 to 0.09 ng/g
same,"Cereulide concentration in large intestine, range",[2]; [6],0 to 0.13 ng/g
same,"Cereulide in content of the large intestine, maximum",[2]; single oral dose 150 μg kg^-1,up to 140 ng g^-1
same,"Cereulide in content of the small intestine, maximum",[2]; single oral dose 150 μg kg^-1,≤ 1 ng/g
same,"Cereulide in the brain, animal with highest blood concentration",[2]; single oral dose 150 μg kg^-1,1.4 ng cereulide g^-1
same,"Cereulide in fat tissue, one animal","[2]; single oral dose 150 μg kg^-1, animal with highest blood concentration",2 ng cereulide g^-1 fat tissue
same,"Cereulide concentration in abdominal fat, range",[2]; [7],2.17 to 12.02 ng/g
same,"Cereulide concentration in brain, range",[2]; [7],0.15 to 1.41 ng/g
same,"Cereulide concentration in content of large intestine, range",[2]; [7],5.84 to 140.99 ng/g
same,"Cereulide concentration in content of small intestine, range",[2]; [7],0 to 1.06 ng/g
same,"Cereulide concentration in kidney, range",[2]; [7],0 to 0.43 ng/g
same,"Cereulide concentration in large intestine, range",[2]; [7],7.14 to 45.75 ng/g
same,"Cereulide concentration in liver, range",[2]; [7],0.25 to 0.41 ng/g
same,"Cereulide concentration in lymph nodes, range",[2]; [7],0 to 4.50 ng/g
same,"Cereulide concentration in muscle, range",[2]; [7],0 to 0.76 ng/g
same,"Cereulide concentration in small intestine, range",[2]; [7],0.34 to 2.49 ng/g
same,"Cereulide concentration in spleen, range",[2]; [7],1.15 to 5.29 ng/g
same,"Cereulide concentration in stomach, range",[2]; [7],0.11 to 7.54 ng/g
same,"Cereulide concentration in subcutaneous fat, range",[2]; [7],0.35 to 1.37 ng/g
same,"Cereulide in fat tissues, maximum","[2]; single oral dose 150 μg kg^-1, two out of four animals",up to 12 ng cereulide g^-1
